# Data as given in patent US7179588B1, “Assay for the detection of paclitaxel resistant cells in human tumors” (Board of Regents of the University of Texas System, priority 1999, dated 2007).
# Entries after “also recorded” stand apart in the source; their conditions may differ. Where two headings read alike, the source gives them in different places.
# What was measured:
# [1] = tested on: HAβ1L215H transfected CHO cells; assay: Immunofluorescence for HA tag in drug-selected HAβ1L215H transfected populations; format: cell-based, Chinese hamster
# Procedure: FIG. 8 depicts paclitaxel selects for transfected cells that express mutant HAβ1-tubulin. Cells transfected with HAβ1L215H cDNA were selected for resistance to G418 (A, B) or paclitaxel (C, D) either in the presence (A, C) or absence (B, D) of 1 μg/ml tetracycline. The total resistant cell population was then trypsinized and replated for 24 h in medium without tetracycline or paclitaxel before processing for immunofluorescence with an antibody specific for the HA tag. Arrows in B and C indicate cells that were positive for HAβ1L215H-tubulin expression. Approximately 50% of the cells in panel A, and 100% of the cells in panel D were positive for expression. Bar=10 μm.
# Cells were grown on glass coverslips to approximately 70% of confluence and fixed in methanol (−20° C.) for at least 10 min as previously described (Gonzalez-Garay, M. L., and Cabral, F.). The primary antibody used for most experiments was mouse monoclonal 12CA5 (Boehringer Mannheim Corp., Indianapolis, Ind.), specific for the HA tag. This was followed by fluorescein conjugated goat antimouse IgG (Cappel). […]
# The ability of β-tubulin mutations to confer paclitaxel resistance was evaluated in 2 ways. […] After the appearance of visible colonies (6–7 d), one duplicate dish was stained with methylene blue and colonies were counted. […]
# [2] = tested on: CHO cell line tTApuro 6.6 transfected with HAβ1L215H cDNA; assay: Cloning efficiencies of HAβ1L215H transfected cells under selective conditions; format: cell-based, Chinese hamster; settings: for Number of colonies relative to G418+tetracycline, arbitrarily set at 100 / Cloning efficiency (colonies under selective conditions divided by colonies in αMEM+tetracycline): 2 mg/ml G418 or 0.2 μg/ml paclitaxel; for Cloning efficiency (colonies under selective conditions divided by colonies in αMEM+tetracycline): 6–10 d
# Procedure: (§1) The ability of β-tubulin mutations to confer paclitaxel resistance was evaluated in 2 ways. In the first, stably transfected cell lines expressing mutant HAβ1-tubulin were seeded at approximately 100 cells/well in replicate wells of a 24-well dish containing increasing concentrations of paclitaxel. The assay was carried out in duplicate with only one set containing 1 μg/ml tetracycline. After 6–7 d, the medium was removed and the resistant colonies were stained with a solution of 0.1% methylene blue as previously described (Cabral, F., Sobel, M. E., and Gottesman, M. M. (1980) Cell 20, 29–36). In a second assay, aliquots (˜7×10^4 cells for selective, and ˜100 cells for non-selective conditions) from total transfected cell populations were seeded into duplicate 6-well dishes containing normal medium (non-selective), 2 mg/ml G418, or 0.2 μg/ml paclitaxel, each with or without 1 μg/ml tetracycline. After the appearance of visible colonies (6–7 d), one duplicate dish was stained with methylene blue and colonies were counted. Cells in the second dish were trypsinized and replated onto glass coverslips for immunofluorescence observation.
# To rule out the possibility that we may have biased the results by examining specific clones of mutant HAβ1-tubulin expressing cells, we also tested the relative abilities of G418 and paclitaxel to select mutant HAβ1-tubulin positive cells from the total transfected cell populations. We reasoned that paclitaxel should be a powerful agent for selection of mutant HAβ1-tubulin expressing cells if, and only if, the mutant tubulin is capable of conferring resistance to the drug. To test this prediction, aliquots from an HAβ1L215H transfected cell population were grown under 6 different conditions: normal medium, medium containing 2 mg/ml G418, and medium containing 0.2 μg/ml paclitaxel, each in the presence or absence of 1 μg/ml tetracycline. Using the number of colonies obtained under nonselective conditions (normal medium containing tetracycline) as a control, the relative cloning efficiencies under the various selective conditions are summarized in Table II.
# In Table II, CHO cell line tTApuro 6.6 was transfected with HAβ1L215H cDNA. At 24 h post-transfection, the cells were trypsinized and replated in normal medium (αMEM), medium containing 2 mg/ml G418, or medium containing 0.2 μg/ml paclitaxel, all either in the presence or absence of 1 μg/ml tetracycline. After 6–10 d (when visible colonies were seen) the cells were stained with methylene blue and the surviving colonies were counted. The cloning efficiency was calculated as the number of colonies obtained under selective conditions (G418 or paclitaxel) divided by the number of colonies obtained under nonselective conditions (αMEM+tetracycline). Numbers in parentheses are the number of colonies obtained relative to G418+tetracycline which was arbitrarily set at 100.
# [3] = tested on: Paclitaxel Resistant CHO Cells
# Procedure: Metabolic labeling was for 1 h in methionine-free MEM (ICN Biomedicals Inc., Costa Mesa, Calif.) containing 30 μCi/ml Tran ^35S-label (1,000 Ci/mmol; ICN Biomedicals).
# [4] = tested on: CHO cells transfected with HAβ1, HAβ1G38E, HAβ1L217R or HAβ1L228F cDNAs; assay: Direct selection of paclitaxel resistant transfected cells; format: cell-based, Chinese hamster
# Procedure: as §1
# [5] = tested on: paclitaxel dependent cell line Tax-18; assay: Cross-resistance growth assay in 24 well dishes, Tax-18; settings: for Rescue of growth of drug-dependent Tax-18: no growth without drug
# Procedure: Wild-type CHO cells (WT), Taxol resistant mutant Tax 5-6 (Tax^R), and Taxol dependent mutant Tax 18 (Tax^D) were seeded into replicate wells of 24 well dishes at a density of approximately 100 cells per well in increasing concentrations of Taxol or Taxotere as indicated (in μg/ml). The cells were grown 7 days and then stained with methylene blue.
# [6] = tested on: Taxol resistant mutant Tax 5-6; assay: Cross-resistance growth assay in 24 well dishes, Tax 5-6; format: cell-based, Chinese hamster; settings: about 100 cells per well, grown 7 days
# [7] = tested on: CHO cells transfected with HAβ1, HAβ1L215H, HAβ1L217R or HAβ1L228F; assay: Paclitaxel dose response of stably transfected cell lines with or without tetracycline (24-well, methylene blue); format: cell-based, Chinese hamster; settings: for Sensitivity to paclitaxel: cells transfected with mutant HAβ1-tubulin
# Procedure: FIG. 7 depicts mutant HAβ1-tubulins confer paclitaxel resistance. Approximately 100 cells were seeded into replicate wells of 24-well dishes containing the indicated concentrations of paclitaxel (in ng/ml) with (“+”) or without (“−”) 1 μg/ml tetracycline. The cells were allowed to grow for 6–7 d and were then stained with methylene blue. The cell lines came from transfections with HAβ1 (A), HAβ1L215H (B), HAβ1L217R (C), or HAβ1L228F (D).
# as §1
# Measurement of drug resistance using a standard cloning efficiency assay was complicated by the observation that clones producing moderate to high levels of mutant HAβ1-tubulin grew poorly and produced many multinucleated cells. This problem was circumvented in 2 different ways. The first came from an observation that among the multinucleated cells, there were some cells that still looked normal. […]
# [8] = tested on: paclitaxel resistant human ovarian cells; settings: gradually selected to higher levels of resistance; cited from earlier work
# [9] = tested on: KB3 cervical carcinoma cell line; settings: preliminary evidence
# wild-type CHO cells = assay: Lethality of paclitaxel to wild-type cells; format: cell-based, Chinese hamster; settings: tetracycline-free medium
# Procedure: Measurement of drug resistance using a standard cloning efficiency assay was complicated by the observation that clones producing moderate to high levels of mutant HAβ1-tubulin grew poorly and produced many multinucleated cells. This problem was circumvented in 2 different ways. The first came from an observation that among the multinucleated cells, there were some cells that still looked normal. […] To select these cells, clones transfected with mutant HAβ1-tubulin were incubated in tetracycline-free medium containing a concentration of paclitaxel (0.2 μg/ml) that is lethal to wild-type cells. Multiple individual colonies were selected and tested for their dose response to paclitaxel; representative results are shown in FIG. 7. […] Thus HAβ1, HAβ1L215H, HAβ1L217R, and HAβ1L228F expressing cells were all tested for paclitaxel sensitivity in the presence or absence of tetracycline.
# [10] = tested on: paclitaxel-resistant cells; settings: frequently observed; cited from earlier work
structure (smiles),measurement,setting,value
"CC(=O)O[C@H]1C(=O)[C@@]2(C)[C@H]([C@H](OC(=O)c3ccccc3)[C@]3(O)C[C@H](OC(=O)[C@H](O)[C@@H](NC(=O)c4ccccc4)c4ccccc4)C(C)=C1C3(C)C)[C@]1(OC(C)=O)CO[C@@H]1C[C@@H]2O [Paclitaxel, paclitaxel]",HA-positive cells in the selected population,"[1]; selected under non-inducing conditions (with tetracycline), assayed following induction",< 5%
same,Selection under inducing conditions less efficient than G418 with tetracycline,"[2]; 0.2 μg/ml paclitaxel, no tetracycline",5 times
same,Fewer colonies under non-inducing conditions than under inducing conditions,"[2]; 0.2 μg/ml paclitaxel, with tetracycline",18 fold
same,"Number of colonies relative to G418+tetracycline, arbitrarily set at 100",[2]; +Tetracycline 1 μg/ml,1
same,Cloning efficiency (colonies under selective conditions divided by colonies in αMEM+tetracycline),[2]; +Tetracycline 1 μg/ml,1.4 × 10^−5
same,"Number of colonies relative to G418+tetracycline, arbitrarily set at 100",[2]; −Tetracycline,18
same,Cloning efficiency (colonies under selective conditions divided by colonies in αMEM+tetracycline),[2]; −Tetracycline,2.3 × 10^−4
same,Resistant or Dependent,"[3]; cell line Tax 1–4, β-tubulin L215H",R
same,Resistant or Dependent,"[3]; cell line Tax 1–19, β-tubulin L215R",R
same,Resistant or Dependent,"[3]; cell line Tax 4–9, β-tubulin L215H",R
same,Resistant or Dependent,"[3]; cell line Tax 6–9, β-tubulin L217R",R
same,Fold resistance to paclitaxel of cell lines selected in one step,[3]; single-step selection with a single lethal dose of paclitaxel,2-3 fold
same,Paclitaxel resistant cells obtained by direct selection,[4]; HAβ1L217R and HAβ1L228F cDNAs,many paclitaxel resistant colonies
same,Paclitaxel resistant cells obtained by direct selection,"[4]; HAβ1 or HAβ1G38E cDNAs, repeated three times",no paclitaxel resistant cells were obtained
same,Rescue of growth of drug-dependent Tax-18,[5]; grown 7 d,rescued
same,Resistance of Tax 5-6 compared to wild-type cells,[6],more resistant
same,"Sensitivity to paclitaxel, HAβ1 expressed versus not expressed","[7]; HAβ1 (wild-type) transfected cells, with or without tetracycline",same sensitivity
same,Sensitivity to paclitaxel,[7]; grown with tetracycline,wild-type paclitaxel sensitivity
same,Sensitivity to paclitaxel,[7]; grown without tetracycline,clear resistance
same,Fold resistance versus unselected cells,[8],24 fold
same,Drug sensitivity of paclitaxel-selected mutant KB3 cells,[9],resistant
same,Concentration lethal to wild-type cells,wild-type CHO cells,0.2 µg/mL
C/C(=C\c1csc(C)n1)[C@@H]1C[C@@H]2O[C@]2(C)CCC[C@H](C)[C@H](O)[C@@H](C)C(=O)C(C)(C)[C@@H](O)CC(=O)O1 [epothilone-B],Resistance of Tax-18 to cytotoxic effects compared to wild-type cells,"[5]; grown 7 d, stained with methylene blue",more resistant
same,Rescue of growth of drug-dependent Tax-18,[5]; grown 7 d,rescued
CC[C@]1(O)C[C@H]2CN(CCc3c([nH]c4ccccc34)[C@@](C(=O)OC)(c3cc4c(cc3OC)N(C=O)[C@H]3[C@@](O)(C(=O)OC)[C@H](OC(C)=O)[C@]5(CC)C=CCN6CC[C@]43[C@@H]65)C2)C1 [vincristine],Sensitivity of paclitaxel-resistant cells to the drug,[10],hypersensitive
CC[C@]1(O)C[C@@H]2CN(CCc3c([nH]c4ccccc34)[C@@](C(=O)OC)(c3cc4c(cc3OC)N(C)[C@H]3[C@@](O)(C(=O)OC)[C@H](OC(C)=O)[C@]5(CC)C=CCN6CC[C@]43[C@@H]65)C2)C1 [vinblastine],Sensitivity of paclitaxel-resistant cells to the drug,[10],increased sensitivity; also recorded: hypersensitive
same,Drug sensitivity of paclitaxel-selected mutant KB3 cells,[9],hypersensitive
COc1cc2c(c(OC)c1OC)-c1ccc(OC)c(=O)cc1[C@@H](NC(C)=O)CC2 [colchicine],Sensitivity of paclitaxel-resistant cells to the drug,[10],increased sensitivity
CN[C@@H]1[C@@H](O)[C@@H](O[C@@H]2[C@@H](O)[C@H](O[C@H]3O[C@H]([C@@H](C)O)[C@@H](O)[C@H](O)[C@H]3N)[C@@H](N)C[C@H]2N)OC[C@]1(C)O [G418],HA-positive cells in the selected population,[1]; selected under inducing conditions (no tetracycline),< 10%
same,"Number of colonies relative to G418+tetracycline, arbitrarily set at 100",[2]; +Tetracycline 1 μg/ml,100
same,Cloning efficiency (colonies under selective conditions divided by colonies in αMEM+tetracycline),[2]; +Tetracycline 1 μg/ml,1.3 × 10^−3
same,Lowering of selection efficiency under inducing conditions (no tetracycline) versus with tetracycline,[2]; G418 2 mg/ml,about 40%
same,"Number of colonies relative to G418+tetracycline, arbitrarily set at 100",[2]; −Tetracycline,60
same,Cloning efficiency (colonies under selective conditions divided by colonies in αMEM+tetracycline),[2]; −Tetracycline,7.9 × 10^−4
CC(=O)O[C@@]12CO[C@@H]1C[C@H](O)[C@@]1(C)C(=O)[C@H](O)C3=C(C)[C@@H](OC(=O)[C@H](O)[C@@H](NC(=O)OC(C)(C)C)c4ccccc4)C[C@@](O)([C@@H](OC(=O)c4ccccc4)[C@H]21)C3(C)C [Taxotere],Resistance of Tax-18 to cytotoxic effects compared to wild-type cells,[5],resistant
same,Rescue of growth of drug-dependent Tax-18,[5]; grown 7 d,rescued
same,Resistance of Tax 5-6 compared to wild-type cells,[6],more resistant
